Reference: patent US20050107682A1, “fMRI system for use in assessing the efficacy of therapies in treating CNS disorders” (priority 2003, published 2005)

Tested on: PD patients
Experiment: fMRI of PD patients performing paced finger tapping (PFT), on and off dopamine supplementation
Type: in vivo
Description: In this fMRI study, ten PD patients and thirteen healthy age-matched controls were imaged while performing the PFT. PD patients underwent two imaging sessions, one on and the other off dopamine supplementation. For this study whole-brain fMRI was performed on a 1.5 Tesla General Electric Signa scanner equipped with a 3-axis local gradient head coil and an elliptical end-capped quadrature radiofrequency coil. Foam padding was used to limit head motion within the coil. Echo-planar images were collected using a single-shot, blipped gradient-echo echo-planar pulse sequence (TE=40 ms, TR=3.0 seconds, 90° flip angle, FOV=240 mm, matrix=64×64). Twenty-two contiguous sagittal 6 mm thick slices were collected to provide coverage of the entire brain (voxel size 3.75×3.75×6 mm). Overall, a total of 136 images were collected per run. Prior to functional imaging, high-resolution, three-dimensional, spoiled gradient-recalled at steady-state (GRASS) anatomic images were collected (TE=5 ms, TR=24 ms, 40° flip angle, NEX=1, slice thickness=1.2 mm, FOV=24 cm, matrix=256×128) for anatomic localization and co-registration.

In the case of `N[C@@H](Cc1ccc(O)c(O)c1)C(=O)O` [Levodopa], the “effect on the S task (fMRI activation)” value (PD patients ON vs OFF medication, S condition of PFT task) is reported as “relatively little effect”, the “spatial extent of activation within the SMC, SMA, and putamen” value (PD patients, fMRI during PFT, on vs off dopamine replacement) is reported as “increase” and the brain activation patterns (PD patients, fMRI during PFT, relative to healthy controls) is reported as “partially “normalized””. For the same molecule, the PFT performance (PD patients, on vs off dopamine supplementation) was “lack of improvement”.
